In the supplement of paper PMC4862054:

Experiments:
Assay in all cases: normalised viability (% of control), CellTiter-Blue; higher = more viable cells (about 100 = DMSO control)
Details in all cases: incubation time: 72 h
[1] = system: CAL-148
Method in brief: (§1)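 The reported figure is normalised viability at a single listed concentration of the series. Breast cancer cell lines (20 µl suspension) went onto 384-well plates holding compound in 5 µl medium for 72 h. CellTiter-Blue (2.5 µl, 2 h, 37 °C) was read by fluorescence at 560/590 nm, and each plate was scaled to vehicle at 100 and a positive kill control at 0.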

[2] = system: MDA-MB-436
Method in brief: as §1

[3] = system: BT-474
Method in brief: as §1

[4] = system: MDA-MB-231
Method in brief: as §1

[5] = system: Hs578T
Method in brief: as §1

[6] = system: HDQ-P1
Method in brief: as §1

[7] = system: HCC1599
Method in brief: as §1

[8] = system: MFM-223
Method in brief: as §1

[9] = system: HCC1937
Method in brief: as §1

[10] = system: CAL-85-1
Method in brief: as §1

[11] = system: DU-4475
Method in brief: as §1

[12] = system: HCC1143
Method in brief: as §1

## Cc1sc2c(c1C)C(c1ccc(Cl)cc1)=N[C@@H](CC(=O)OC(C)(C)C)c1nnc(C)n1-2 [(+)JQ1]
[1]; 3 nM
  normalised viability: 95.7%
[1]; 30 nM
  normalised viability: 103%
[1]; 100 nM
  normalised viability: 97.3%
[2]; 10 nM
  normalised viability: 105%
[2]; 1000 nM
  normalised viability: 86.3%
[2]; 10000 nM
  normalised viability: 99.7%
[3]; 10 nM
  normalised viability: 118%
[3]; 1000 nM
  normalised viability: 95.1%
[3]; 10000 nM
  normalised viability: 102%
[4]; 10 nM
  normalised viability: 107%
[4]; 1000 nM
  normalised viability: 32.8%
[4]; 10000 nM
  normalised viability: 35.9%
[5]; 10 nM
  normalised viability: 100%
[5]; 1000 nM
  normalised viability: 61.4%
[5]; 10000 nM
  normalised viability: 44.8%
[6]; 3 nM
  normalised viability: 102%
[6]; 30 nM
  normalised viability: 113%
[6]; 100 nM
  normalised viability: 107%
[7]; 10 nM
  normalised viability: 115%
[7]; 1000 nM
  normalised viability: 58%
[7]; 10000 nM
  normalised viability: 54.6%
[8]; 10 nM
  normalised viability: 99.3%
[8]; 1000 nM
  normalised viability: 54%
[8]; 10000 nM
  normalised viability: 45.4%
[9]; 10 nM
  normalised viability: 109%
[9]; 1000 nM
  normalised viability: 62.9%
[9]; 10000 nM
  normalised viability: 55.9%
[10]; 3 nM
  normalised viability: 93.2%
[10]; 30 nM
  normalised viability: 82.6%
[10]; 100 nM
  normalised viability: 80%
[11]; 3 nM
  normalised viability: 104%
[11]; 30 nM
  normalised viability: 77.6%
[11]; 100 nM
  normalised viability: 90.1%
[12]; 10 nM
  normalised viability: 91.1%
[12]; 1000 nM
  normalised viability: 67.6%
[12]; 10000 nM
  normalised viability: 58.7%

## Oc1ncnc2[nH]ncc12 [Allopurinol]
[1]; 3 nM
  normalised viability: 113%
[1]; 30 nM
  normalised viability: 121%
[1]; 100 nM
  normalised viability: 120%
[2]; 10 nM
  normalised viability: 100%
[2]; 1000 nM
  normalised viability: 101%
[2]; 10000 nM
  normalised viability: 93.4%
[3]; 10 nM
  normalised viability: 114%
[3]; 1000 nM
  normalised viability: 116%
[3]; 10000 nM
  normalised viability: 102%
[4]; 10 nM
  normalised viability: 91.8%
[4]; 1000 nM
  normalised viability: 93.9%
[4]; 10000 nM
  normalised viability: 107%
[5]; 10 nM
  normalised viability: 108%
[5]; 1000 nM
  normalised viability: 120%
[5]; 10000 nM
  normalised viability: 106%
[6]; 3 nM
  normalised viability: 95.9%
[6]; 30 nM
  normalised viability: 93.1%
[6]; 100 nM
  normalised viability: 91.8%
[7]; 10 nM
  normalised viability: 87.1%
[7]; 1000 nM
  normalised viability: 77.3%
[7]; 10000 nM
  normalised viability: 90.1%
[8]; 10 nM
  normalised viability: 95.3%
[8]; 1000 nM
  normalised viability: 110%
[8]; 10000 nM
  normalised viability: 105%
[9]; 10 nM
  normalised viability: 87.2%
[9]; 1000 nM
  normalised viability: 79.2%
[9]; 10000 nM
  normalised viability: 96.2%
[10]; 3 nM
  normalised viability: 109%
[10]; 30 nM
  normalised viability: 98%
[10]; 100 nM
  normalised viability: 106%
[11]; 3 nM
  normalised viability: 104%
[11]; 30 nM
  normalised viability: 92.1%
[11]; 100 nM
  normalised viability: 97%
[12]; 10 nM
  normalised viability: 119%
[12]; 1000 nM
  normalised viability: 123%
[12]; 10000 nM
  normalised viability: 108%

## O=C1CN2Cc3c(ccc(Cl)c3Cl)N=C2N1 [Anagrelide]
[1]; 3 nM
  normalised viability: 96.5%
[1]; 30 nM
  normalised viability: 102%
[1]; 100 nM
  normalised viability: 103%
[2]; 10 nM
  normalised viability: 79.2%
[2]; 1000 nM
  normalised viability: 97%
[2]; 10000 nM
  normalised viability: 99%
[3]; 10 nM
  normalised viability: 126%
[3]; 1000 nM
  normalised viability: 132%
[3]; 10000 nM
  normalised viability: 130%
[4]; 10 nM
  normalised viability: 103%
[4]; 1000 nM
  normalised viability: 95.5%
[4]; 10000 nM
  normalised viability: 104%
[5]; 10 nM
  normalised viability: 101%
[5]; 1000 nM
  normalised viability: 90.9%
[5]; 10000 nM
  normalised viability: 88.2%
[6]; 3 nM
  normalised viability: 116%
[6]; 30 nM
  normalised viability: 95%
[6]; 100 nM
  normalised viability: 99.2%
[7]; 10 nM
  normalised viability: 112%
[7]; 1000 nM
  normalised viability: 93.1%
[7]; 10000 nM
  normalised viability: 89.3%
[8]; 10 nM
  normalised viability: 100%
[8]; 1000 nM
  normalised viability: 99%
[8]; 10000 nM
  normalised viability: 104%
[9]; 10 nM
  normalised viability: 95.6%
[9]; 1000 nM
  normalised viability: 82.5%
[9]; 10000 nM
  normalised viability: 77.8%
[10]; 3 nM
  normalised viability: 102%
[10]; 30 nM
  normalised viability: 84.7%
[10]; 100 nM
  normalised viability: 97.1%
[11]; 3 nM
  normalised viability: 89.5%
[11]; 30 nM
  normalised viability: 79.5%
[11]; 100 nM
  normalised viability: 96.1%
[12]; 10 nM
  normalised viability: 83.5%
[12]; 1000 nM
  normalised viability: 87.8%
[12]; 10000 nM
  normalised viability: 83.2%

## Nc1ncn([C@@H]2O[C@H](CO)[C@@H](O)[C@H]2O)c(=O)n1 [Azacitidine]
[1]; 3 nM
  normalised viability: 83.8%
[1]; 30 nM
  normalised viability: 85.2%
[1]; 100 nM
  normalised viability: 89.3%
[2]; 10 nM
  normalised viability: 114%
[2]; 1000 nM
  normalised viability: 86.3%
[2]; 10000 nM
  normalised viability: 70.3%
[3]; 10 nM
  normalised viability: 104%
[3]; 1000 nM
  normalised viability: 102%
[3]; 10000 nM
  normalised viability: 95%
[4]; 10 nM
  normalised viability: 81.1%
[4]; 1000 nM
  normalised viability: 85.4%
[4]; 10000 nM
  normalised viability: 69.9%
[5]; 10 nM
  normalised viability: 98.4%
[5]; 1000 nM
  normalised viability: 90.2%
[5]; 10000 nM
  normalised viability: 36%
[6]; 3 nM
  normalised viability: 141%
[6]; 30 nM
  normalised viability: 104%
[6]; 100 nM
  normalised viability: 96%
[7]; 10 nM
  normalised viability: 111%
[7]; 1000 nM
  normalised viability: 72.8%
[7]; 10000 nM
  normalised viability: 88.4%
[8]; 10 nM
  normalised viability: 100%
[8]; 1000 nM
  normalised viability: 95.5%
[8]; 10000 nM
  normalised viability: 59.4%
[9]; 10 nM
  normalised viability: 94%
[9]; 1000 nM
  normalised viability: 74.4%
[9]; 10000 nM
  normalised viability: 56.9%
[10]; 3 nM
  normalised viability: 98.5%
[10]; 30 nM
  normalised viability: 97.8%
[10]; 100 nM
  normalised viability: 92.6%
[11]; 3 nM
  normalised viability: 97.2%
[11]; 30 nM
  normalised viability: 116%
[11]; 100 nM
  normalised viability: 117%
[12]; 10 nM
  normalised viability: 72.6%
[12]; 1000 nM
  normalised viability: 83.8%
[12]; 10000 nM
  normalised viability: 62.3%
